Laboratory results reported in patent US8623811B2, “Antimicrobial peptide, compositions, and methods of use” (Revance Therapeutics, Inc., priority 2007, dated 2014).

Experiments:
[1] = tested on: acne; test: Topical use in a patient with acne; format: in vivo, human; conditions: continued use of the formulation for two years
Source text: A person with a two-year history of acne uses topical 5% peptide (SEQ ID NO:5) formulation twice a day for 4 weeks. The cream formulation is composed of the excipients cetyl alcohol, isopropyl myristate, stearyl alcohol, butylated hydroxytolune, polyoxyethylene stearyl ether, polyoxyethylene stearyl ether, edetate disodium, and purified water.

[2] = tested on: Tinea Pedis (Athlete's feet); test: Soak and topical use in a patient with Tinea Pedis; format: in vivo, human; conditions: 0.05% peptide formulation for 5 years
Source text: The cream formulation is composed of the excipients cetyl alcohol, isopropyl myristate, stearyl alcohol, butylated hydrosyxtoluene, polyoxyethylene stearyl ether, polyoxyethylene stearyl ether, edetate disodium, and purified water.

Question: Which results are given for N=C(N)NCCC[C@H](NC(=O)[C@H](CCCNC(=N)N)NC(=O)[C@H](CCCNC(=N)N)NC(=O)[C@H](CCC(N)=O)NC(=O)[C@H](CCCNC(=N)N)NC(=O)[C@H](CCCNC(=N)N)NC(=O)[C@H](CCCCN)NC(=O)[C@H](CCCCN)NC(=O)[C@H](CCCNC(=N)N)NC(=O)CNC(=O)[C@H](CCCCN)NC(=O)[C@H](CCCCN)NC(=O)[C@H](CCCCN)NC(=O)[C@H](CCCCN)NC(=O)[C@H](CCCCN)NC(=O)[C@H](CCCCN)NC(=O)[C@H](CCCCN)NC(=O)[C@H](CCCCN)NC(=O)[C@H](CCCCN)NC(=O)[C@H](CCCCN)NC(=O)[C@H](CCCCN)NC(=O)[C@H](CCCCN)NC(=O)[C@H](CCCCN)NC(=O)[C@H](CCCCN)NC(=O)[C@H](CCCCN)NC(=O)CNC(=O)[C@H](CCCNC(=N)N)NC(=O)[C@H](CCCNC(=N)N)NC(=O)[C@H](CCCNC(=N)N)NC(=O)[C@H](CCC(N)=O)NC(=O)[C@H](CCCNC(=N)N)NC(=O)[C@H](CCCNC(=N)N)NC(=O)[C@H](CCCCN)NC(=O)[C@H](CCCCN)NC(=O)[C@@H](N)CCCNC(=N)N)C(=O)O [SEQ ID NO:5, Arg-Lys-Lys-Arg-Arg-Gln-Arg-Arg-Arg-Gly-(Lys)15-Gly-Arg-Lys-Lys-Arg-Arg-Gln-Arg-Arg-Arg]?
Answer: adverse events on continued use [1]: no new breakouts or adverse events are observed; adverse event on continued use [2]: no further breakout or adverse event
